Assay: PET test using normal cynomolgus monkey (heart contrast PET, SUV in myocardium and bone ROI)
Type: in vivo
Settings: for SUV (bone) 20 minutes / SUV (bone) 60 minutes / SUV (bone) 120 minutes / SUV (bone) 180 minutes / SUV (myocardium) 20 minutes / SUV (myocardium) 60 minutes / SUV (myocardium) 120 minutes / SUV (myocardium) 180 minutes: male normal cynomolgus monkey, about 300 MBq i.v.; for SUV (bone) 20 minutes / SUV (bone) 60 minutes / SUV (bone) 120 minutes / SUV (bone) 180 minutes: ROI bone (near the spine), n.d. = target organ cannot be confirmed in the image and ROI cannot be set; for SUV (bone) 20 minutes / SUV (myocardium) 20 minutes: 0 to 20 minutes after administration; for SUV (bone) 60 minutes / SUV (myocardium) 60 minutes: 20-minute section ending 60 minutes after administration; for SUV (bone) 120 minutes / SUV (myocardium) 120 minutes: 20-minute section ending 120 minutes after administration; for SUV (bone) 180 minutes / SUV (myocardium) 180 minutes: 160 to 180 minutes after administration; for SUV (myocardium) 20 minutes / SUV (myocardium) 60 minutes / SUV (myocardium) 120 minutes / SUV (myocardium) 180 minutes: ROI myocardium, Examples 1 case, Reference Example 15 average ± standard error of 3 cases
Source text: Solutions containing each compound prepared in Examples 1 to 7 and Reference Example 15 ([^18F]FTO) were used to perform a heart contrast PET test using normal cynomolgus monkeys.
For performing non-invasive PET imaging, in a state in which a male cynomolgus monkey was anesthetized with inhalation anesthetic isoflurane, the monkey was held at a supine body position on a PET camera SHR17000 (manufactured by Hamamatsu Photonics K.K.), the solution containing each compound (about 300 MBq) was administered from the lower extremity vein, and continuous imaging was performed for 180 minutes or more after the administration. The PET images were reconstructed by dynamic row-action maximum likelihood algorithm (DRAMA) and average images per each time section which is divided every 20 minutes from 0 minutes to 180 minutes after the administration, are obtained. Then, the region of interest (ROI) was set in the myocardium region or bone (near the spine), and the accumulation (standardized uptake value (SUV)) of each compound was calculated as {radioactivity count in the ROI (MBq/cc)/[dose (MBq)/body weight (g)]}.
The SUV values quantified by setting the ROI for the myocardium and the bone of each compound are shown in Tables 10 and 11 as SUV (myocardium) and SUV (bone). […] A case where the target organ cannot be confirmed in the image and the ROI cannot be set is denoted as n.d. The time in the Tables represents an end point of each time section, for example, “20 minutes” represents the SUV value from 0 minutes to 20 minutes after, and “180 minutes” represents the SUV value from 160 minutes to 180 minutes after the administration. In addition, Maximum Intensity Projection (MIP) PET images 60 minutes and 180 minutes after the administration of the compounds of Reference Example 15 ([…]) and Example 6 are shown in FIGS. 1A to 1D.

SMILES	SUV (bone) 20 minutes	SUV (bone) 60 minutes	SUV (bone) 120 minutes	SUV (bone) 180 minutes	SUV (myocardium) 20 minutes	SUV (myocardium) 60 minutes	SUV (myocardium) 120 minutes	SUV (myocardium) 180 minutes	non-specific accumulation to the bone (PET, normal cynomolgus monkey, result in words)
CCCCCCCC/C=C/CC([18F])CCSCCC(=O)O (stereo not shown) [Example 5, 3-{[(5E)-3-[^18F]fluorotetradec-5-en-1-yl]sulfanyl}propanoic acid]	1.45	1.36	1.28	1.40	6.84	6.13	5.16	5.09	–
O=C(O)CCSCCCC/C=C\CCCCCCCC[18F] [Reference Example 15, 3-{[(5Z)-14-[^18F]fluorotetradec-5-en-1-yl]sulfanyl}propanoic acid, reference compound]	1.42 ± 0.10	2.27 ± 0.13	3.82 ± 0.60	5.05 ± 0.99	6.45 ± 0.59	6.54 ± 0.51	5.90 ± 0.58	5.21 ± 0.59	–
CC/C=C\C/C=C\C/C=C\CC([18F])CCSCCC(=O)O (stereo not shown) [Example 1, 3-{[(5Z,8Z,11Z)-3-[lSF]fluorotetradeca-5,8,11-trien-1-yl]sulfanyl}propanoic acid]	0.87	0.69	0.75	0.79	4.87	4.13	3.21	2.80	–
CCCCCCCCCC([18F])CCSCCC(=O)O (stereo not shown) [Example 2, 3-[(3-[^18F]fluorododecyl)sulfanyl]propanoic acid]	1.40	1.05	1.34	1.14	7.40	7.53	6.74	5.92	–
CCCCCCCCC([18F])CCSCCCCC(=O)O (stereo not shown) [Example 7, 5-[(3-[^18F]fluoroundecyl)sulfanyl]pentanoic acid]	1.87	3.41	5.11	6.36	11.6	11.4	10.0	8.44	–
CCCCCCCCC1CC1CC([18F])CCSCCC(=O)O (stereo not shown) [Example 6, 3-{[3-[^18F]fluoro-4-(2-octylcyclopropyl)butyl]sulfanyl}propanoic acid]	–	–	–	–	7.74	6.24	4.80	3.98	not detected at all
CCCCCCCCCCCC([18F])CCSCCC(=O)O (stereo not shown) [Example 4, 3-[(3-[^18F]fluorotetradecyl)sulfanyl]propanoic acid]	1.57	1.13	1.27	1.51	6.65	5.44	4.38	3.92	–
CCCCC/C=C\C/C=C\CC([18F])CCSCCC(=O)O (stereo not shown) [Example 3, 3-{[(5Z,8Z)-3-[^18F]fluorotetradeca-5,8-dien-1-yl]sulfanyl}propanoic acid]	2.12	2.00	2.07	2.08	5.75	3.20	2.80	2.41	–

— patent publication US20230065079A1, “FATTY ACID DERIVATIVE LABELED WITH POSITRON-EMITTING RADIONUCLIDE” (ASTELLAS PHARMA INC., priority 2020, published 2023)
